Source: BindingDB's records for doi:10.7270/Q2RN3686 (Emory University, 2009)

These compounds were tested against Eukaryotic translation initiation factor 4 gamma 1 (Homo sapiens, UniProt Q04637) (assay: eIF4E–eIF4G protein interaction inhibitors, dose response, biochemical, TR-FRET (AID 855)).
Chain of Eukaryotic translation initiation factor 4 gamma 1 (Q04637 whole entry): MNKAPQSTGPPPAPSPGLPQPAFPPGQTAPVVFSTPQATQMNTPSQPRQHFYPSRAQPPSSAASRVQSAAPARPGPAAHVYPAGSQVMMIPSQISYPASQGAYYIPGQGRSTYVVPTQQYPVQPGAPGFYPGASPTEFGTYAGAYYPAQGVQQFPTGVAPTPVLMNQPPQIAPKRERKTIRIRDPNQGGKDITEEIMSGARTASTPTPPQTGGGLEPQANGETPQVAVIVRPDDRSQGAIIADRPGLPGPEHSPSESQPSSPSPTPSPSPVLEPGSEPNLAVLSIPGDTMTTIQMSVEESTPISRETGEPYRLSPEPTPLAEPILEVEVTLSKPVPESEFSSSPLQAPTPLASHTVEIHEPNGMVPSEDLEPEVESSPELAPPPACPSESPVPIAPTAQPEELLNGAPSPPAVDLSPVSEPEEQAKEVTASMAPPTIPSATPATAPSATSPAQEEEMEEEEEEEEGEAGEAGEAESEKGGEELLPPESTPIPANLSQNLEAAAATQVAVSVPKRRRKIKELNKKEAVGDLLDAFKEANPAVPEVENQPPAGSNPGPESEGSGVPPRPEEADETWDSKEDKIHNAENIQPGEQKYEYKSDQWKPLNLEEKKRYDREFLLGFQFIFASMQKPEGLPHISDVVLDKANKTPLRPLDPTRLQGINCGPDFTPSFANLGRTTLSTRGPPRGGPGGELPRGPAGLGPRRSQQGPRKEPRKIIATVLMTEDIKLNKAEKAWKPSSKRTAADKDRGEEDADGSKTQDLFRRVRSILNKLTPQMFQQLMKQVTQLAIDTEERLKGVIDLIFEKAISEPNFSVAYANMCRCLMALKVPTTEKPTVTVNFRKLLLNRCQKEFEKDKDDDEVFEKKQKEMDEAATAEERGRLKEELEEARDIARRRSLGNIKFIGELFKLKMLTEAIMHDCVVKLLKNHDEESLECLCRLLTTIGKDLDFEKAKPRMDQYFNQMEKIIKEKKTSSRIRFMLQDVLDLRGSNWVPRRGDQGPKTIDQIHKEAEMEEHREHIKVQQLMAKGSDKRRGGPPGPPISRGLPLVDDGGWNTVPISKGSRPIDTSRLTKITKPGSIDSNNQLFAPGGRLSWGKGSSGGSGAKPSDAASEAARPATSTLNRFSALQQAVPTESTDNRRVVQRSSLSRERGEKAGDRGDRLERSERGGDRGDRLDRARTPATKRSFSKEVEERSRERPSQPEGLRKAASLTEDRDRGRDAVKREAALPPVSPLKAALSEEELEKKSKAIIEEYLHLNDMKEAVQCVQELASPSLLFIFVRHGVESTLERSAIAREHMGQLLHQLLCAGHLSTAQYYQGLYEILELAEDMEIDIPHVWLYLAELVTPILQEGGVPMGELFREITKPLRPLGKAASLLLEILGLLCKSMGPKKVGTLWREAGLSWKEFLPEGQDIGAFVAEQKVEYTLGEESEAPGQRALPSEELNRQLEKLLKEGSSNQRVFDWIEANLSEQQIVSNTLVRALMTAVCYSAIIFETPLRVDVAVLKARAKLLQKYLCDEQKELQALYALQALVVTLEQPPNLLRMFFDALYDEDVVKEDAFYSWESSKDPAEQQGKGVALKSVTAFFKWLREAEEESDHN

| SMILES | IC50 |
| --- | --- |
| O=C1CCCC2=Nc3[nH]c(=S)[nH]c(=O)c3C(c3ccc(Br)cc3)C12 (configuration not stated) [5-(4-bromophenyl)-2-thioxo-2,3,5,8,9,10-hexahydropyrimido[4,5-b]quinoline-4,6(1H,7H)-dione] | > 64 µM |
| COc1ccc2nc(N3C(=O)C(=C4C(=O)Nc5ccccc54)NC3=S)sc2c1 [(3Z)-3-[1-(6-methoxy-1,3-benzothiazol-2-yl)-5-oxidanylidene-2-sulfanylidene-imidazolidin-4-ylidene]-1H-indol-2-one] | > 64 µM |
| Cc1ccc(-n2c(C)cc(CN=Nc3ccc([N+](=O)[O-])cn3)c2C)cc1 [MLS000552475] | > 64 µM |
| CC(=O)C1=C(c2ccccc2)OC(=N)C(C#N)C1c1ccc(O)cc1 (configuration not stated) [2-azanyl-5-ethanoyl-4-(4-hydroxyphenyl)-6-phenyl-4H-pyran-3-carbonitrile] | > 64 µM |
| CC(=O)C1=C(C)N=C(SCc2ccc(C#N)cc2)C(C#N)C1c1ccco1 (configuration not stated) [5-acetyl-2-[(4-cyanophenyl)methylsulfanyl]-4-(furan-2-yl)-6-methyl-1,4-dihydropyridine-3-carbonitrile] | > 64 µM |
| NC(=NNC=c1ccc(=C2C=CC(=O)C(C(=O)O)=C2)o1)N[N+](=O)[O-] [5-(5-{2-[amino(nitroimino)methyl]carbonohydrazonoyl}-2-furyl)-2-hydroxybenzoic acid] | 63.6 µM |
| O=[N+]([O-])c1cc(Br)c(O)c(CN=Nc2nnnn2-c2cccc3ccccc23)c1 [(6E)-2-bromo-6-[[2-(1-naphthalen-1-yltetrazol-5-yl)hydrazinyl]methylidene]-4-nitrocyclohexa-2,4-dien-1-one] | > 64 µM |
| Oc1cc(N2CCN(Cc3ccc4c(c3)OCO4)CC2)c(O)n1-c1cccc(Cl)c1 [1-(3-chlorophenyl)-3-(4-piperonylpiperazino)pyrrolidine-2,5-quinone] | > 64 µM |
| COc1ccc(Cc2c(O)n(-c3ccccc3)c(=O)[nH]c2=O)c(OC)c1 | > 64 µM |
| CN(C)[C@@H]1C(=O)C(C(=O)NCN2CCCC2)C(=O)[C@@]2(O)C(=O)C3C(=O)c4c(O)cccc4[C@@](C)(O)C3CC12 (stereo partly drawn) [(2Z,4S,6S,12aS)-4-(dimethylamino)-6,10,11,12a-tetrahydroxy-2-[hydroxy-(1-pyrrolidinylmethylamino)methylidene]-6-methyl-4,4a,5,5a-tetrahydrotetracene-1,3,12-trione] | 12.3 µM |
| CN(C)[C@@H]1C(=O)C(C(N)=O)C(=O)[C@@]2(O)C(=O)C3C(=O)c4c(O)cccc4[C@@](C)(O)[C@H]3[C@H](O)[C@@H]12 (stereo partly drawn) [(2E,4S,4aR,5S,5aR,6S,12aS)-2-[azanyl(oxidanyl)methylidene]-4-(dimethylamino)-6-methyl-5,6,10,11,12a-pentakis(oxidanyl)-4,4a,5,5a-tetrahydrotetracene-1,3,12-trione] | 50 µM |
| COc1ccc(-c2cnnc(N=NCc3ccc(-c4ccc([N+](=O)[O-])cc4)o3)n2)cc1 | 50 µM |
| Cc1cc(CN=Nc2ccc([N+](=O)[O-])cn2)c(C)n1-c1ccc(C(=O)O)cc1 [4-{2,5-dimethyl-3-[2-(5-nitro-2-pyridinyl)carbonohydrazonoyl]-1H-pyrrol-1-yl}benzoic acid] | 50 µM |
| Cc1ccc(Nc2c3[nH]cccc-3c(=O)n2-c2ccccc2C)cc1C [SMR000028201] | 9.59 µM |
| O=C1CCCC(=O)C1C(C#Cc1ccccc1)C1C(=O)CCCC1=O [3-hydroxy-2-[1-(2-hydroxy-6-keto-cyclohexen-1-yl)-3-phenyl-prop-2-ynyl]cyclohex-2-en-1-one] | > 64 µM |
| C=c1cc2[nH]c(=O)c(=Cc3cc(C)n(-c4ccccc4)c3C)c(=N)n2o1 | > 64 µM |
| O=C1Nc2ccc([N+](=O)[O-])cc2/C1=N/NC(=O)c1cc(-c2ccccc2Cl)nc2ccccc12 [2-(2-chlorophenyl)-N'-(2-keto-5-nitro-indol-3-yl)cinchoninohydrazide] | > 64 µM |
| Cc1ccccc1C(=O)Nc1cccc(C(=O)N/N=C/C2C=C(Cl)C=C([N+](=O)[O-])C2=O)c1 (configuration not stated) [N-(3-{[(2E)-2-(5-chloro-2-hydroxy-3-nitrobenzylidene)hydrazino]carbonyl}phenyl)-2-methylbenzamide] | 50 µM |
| O=C1N=C(Nc2ccc(O)cc2)SC1=C1C(=O)Nc2ccccc21 [(5Z)-2-[(4-hydroxyphenyl)amino]-5-(2-oxidanylidene-1H-indol-3-ylidene)-1,3-thiazol-4-one] | 50 µM |
| CC(C)(C)c1[nH]nc2c1C(c1ccc(OC(=O)c3ccco3)cc1)C(C#N)C(=N)O2 (configuration not stated) [2-furancarboxylic acid [4-(6-amino-3-tert-butyl-5-cyano-2,4-dihydropyrano[2,3-c]pyrazol-4-yl)phenyl] ester] | > 64 µM |
| C[N+](C)(C)c1ccc(CN=Nc2nc(Cl)c(C#N)c(Cl)c2Cl)cc1 [trimethyl-[4-[[(3,4,6-trichloro-5-cyanopyridin-2-yl)hydrazinylidene]methyl]phenyl]azanium;iodide] | > 64 µM |
| Cc1ccc(/C=C/C(=O)C2=C(O)N(C)C3(C)CC2c2ccccc2O3)cc1 (configuration not stated) [MLS000519940] | > 64 µM |
| O=NCC(=O)Nc1ccc(F)cc1 [MLS000036190] | > 64 µM |
| O=C1C=CC(CN=Nc2nccs2)C=C1[N+](=O)[O-] (configuration not stated) [(4Z)-2-nitro-4-[(2-thiazolylhydrazo)methylidene]-1-cyclohexa-2,5-dienone] | 10.8 µM |
| CSc1ccc(CN=Nc2cccc(C(=O)O)c2)cc1 [3-[(N'E)-N'-[4-(methylthio)benzylidene]hydrazino]benzoic acid] | 50 µM |
| COc1cc(C2C(C(=O)c3ccccc3)C(=O)C(=O)N2c2ccccn2)ccc1O (configuration not stated) [(4Z)-5-(3-methoxy-4-oxidanyl-phenyl)-4-[oxidanyl(phenyl)methylidene]-1-pyridin-2-yl-pyrrolidine-2,3-dione] | 50 µM |
| COc1ccc(Cn2c(Nc3cc(Cl)ccc3OC)c3[nH]cccc-3c2=O)cc1 [7-[(5-chloranyl-2-methoxy-phenyl)amino]-6-[(4-methoxyphenyl)methyl]-7H-pyrrolo[3,4-b]pyridin-5-one] | 14.4 µM |
